Test results as given in patent US10233186B2, “Inhibitors of activin receptor-like kinase” (BLUEPRINT MEDICINES CORPORATION, priority 2016, dated 2019).

How the values were obtained:
human ALK2 R206H = biological target: T1, human ALK2 R206H (Homo sapiens, UniProt Q04771, R206H); experiment: Cell-based ALK2-R206H cell activity assay (Smad1-Ser463/Ser465 phosphorylation by AlphaLISA in HEK293-ALK2-R206H cells); conditions: read-out: Cell Line (Cell Assay IC50)
T1 construct: expressed in transfected cells; host or cells: HEK293 (ATCC CRL1573), lentivirus transduction, blasticidin selection
T1 sequence (Q04771 21-509 R206H): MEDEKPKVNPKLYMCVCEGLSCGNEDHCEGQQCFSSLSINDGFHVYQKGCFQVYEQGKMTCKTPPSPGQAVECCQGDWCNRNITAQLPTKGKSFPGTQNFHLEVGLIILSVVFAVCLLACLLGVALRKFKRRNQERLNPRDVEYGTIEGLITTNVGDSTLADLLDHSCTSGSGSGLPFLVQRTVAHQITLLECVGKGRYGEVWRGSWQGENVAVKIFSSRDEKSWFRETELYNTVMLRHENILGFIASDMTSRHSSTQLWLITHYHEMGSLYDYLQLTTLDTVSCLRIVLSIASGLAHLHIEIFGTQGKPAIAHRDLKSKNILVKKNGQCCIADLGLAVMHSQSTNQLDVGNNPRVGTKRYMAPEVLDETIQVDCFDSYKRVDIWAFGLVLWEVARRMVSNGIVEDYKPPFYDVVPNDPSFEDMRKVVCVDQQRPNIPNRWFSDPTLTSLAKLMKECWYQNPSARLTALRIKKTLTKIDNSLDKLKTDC
Outline: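 Stable HEK293 cells expressing C-terminally FLAG-tagged human ALK2 R206H (lentiviral, blasticidin-selected) were treated with compounds in 10-point, 3-fold dilutions from 10 μM or 1 μM top, in duplicate. Smad1 Ser463/Ser465 phosphorylation was read by AlphaLISA.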

[1] = biological target: T2, ALK2 R206H (GST-tagged mutant ALK2) (Homo sapiens, UniProt Q04771, R206H); experiment: ALK binding assay (LANTHASCREEN TR-FRET competitive binding, displacement of Kinase Tracer 178); conditions: ALK2 R206H, LANTHASCREEN TR-FRET competitive binding; read-out: Binding Assay (IC50)
T2 construct: purchased Carna Bioscience or ThermoFisher 09-148 or PV6232
T2 sequence (Q04771 21-509 R206H): T1 sequence (Q04771 21-509 R206H)

SMILES	IC50 (human ALK2 R206H) [nM]	IC50 [1] [nM]
CCN1CCN(c2ccc(-c3cc4c(N5CCN(C(=O)C6CC(C)(O)C6)CC5)ccnn4c3)cc2)CC1 (centres unmarked) [Compound 391]	< 100	< 10
CC[C@H](C)NC(=O)N1CCN(c2ccnn3cc(-c4ccc(C5CCN(C(C)C)CC5)cc4)cc23)CC1 [Compound 393]	100 to 500	< 10
CCNC(=O)N1CCN(c2ccnn3cc(-c4ccc(C5(OC)CCN(C(C)C)CC5)cc4)cc23)CC1 [Compound 399]	< 100	< 10
CCNC(=O)N1CCN(c2ccnn3cc(-c4ccc(C5(OC)CCCN(C(C)C)C5)cc4)cc23)CC1 (centres unmarked) [Compound 400]	< 100	< 10
COCCOC(=O)N1CCN(c2ccnn3cc(-c4ccc(C5CCN(C(C)C)CC5)cc4)cc23)CC1 [Compound 401]	100 to 500	< 10
CCN1CCN(c2ccc(-c3cc4c(N5CCN(C(=O)C6CC(F)(F)C6)CC5)ccnn4c3)cc2)CC1 [Compound 402]	100 to 500	< 10
CCN1CC2(C1)CN(c1ccc(-c3cc4c(N5CCN(C(=O)N6CC(C#N)C6)CC5)ccnn4c3)cc1)C2 [Compound 404]	100 to 500	< 10
CC(C)N1CC(c2ccc(-c3cc4c(N5CCN(C(=O)[C@H]6CC[C@H](C#N)CC6)CC5)ccnn4c3)cc2)C1 [Compound 406]	< 100	< 10
CC(C)N1CCC(c2ccc(-c3cc4c(N5CCN(C(=O)[C@H]6C[C@@H]6C#N)[C@H](C)C5)ccnn4c3)cc2)CC1 [Compound 407]	< 100	< 10
CC(C)N1CCC[C@@H](c2ccc(-c3cc4c(N5CCN(C(=O)[C@H]6C[C@H](C#N)C6)CC5)ccnn4c3)cc2)C1 [Compound 408]	< 100	< 10
CC(C)N1CCC[C@H](c2ccc(-c3cc4c(N5CCN(C(=O)[C@H]6C[C@H](C#N)C6)CC5)ccnn4c3)cc2)C1 [Compound 409]	< 100	< 10
CC(C)N1CCCC(c2ccc(-c3cc4c(N5CCN(C(=O)N6CC(C#N)C6)CC5)ccnn4c3)cc2)C1 (centres unmarked) [Compound 411]	100 to 500	< 10
CCN1CCC(c2ccc(-c3cc4c(N5CCN(C(=O)N6CC(C#N)C6)[C@H](C)C5)ccnn4c3)cc2)CC1 [Compound 412]	< 100	< 10
CC(C)N1CCN(c2ccc(-c3cc4c(N5CCN(C(=O)[C@H]6C[C@H](C#N)C6)CC5)ccnn4c3)cc2)CC1 [Compound 413]	< 100	< 10
CCN1CCC(c2ccc(-c3cc4c(N5CCN(C(=O)C6CCC(C)CC6)CC5)ccnn4c3)cc2)CC1 (centres unmarked) [Compound 415]	< 100	< 10
CC(C)N1CC[C@H](c2ccc(-c3cc4c(N5CCN(C(=O)[C@H]6CC[C@H](O)CC6)CC5)ccnn4c3)cc2)C1 [Compound 418]	< 100	< 10
CC(C)N1CC[C@@H](c2ccc(-c3cc4c(N5CCN(C(=O)[C@H]6CC[C@H](O)CC6)CC5)ccnn4c3)cc2)C1 [Compound 419]	< 100	< 10
CC(C)N1CCC(c2ccc(-c3cc4c(N5CCN(C(=O)[C@H]6C[C@](C)(O)C6)CC5)ccnn4c3)cc2)CC1 [Compound 420]	< 100	< 10
CC(C)N1CCC(c2ccc(-c3cc4c(N5CCN(C(=O)[C@H]6C[C@@](C)(O)C6)CC5)ccnn4c3)cc2)CC1 [Compound 421]	< 100	< 10
CCN1CCN(c2ccc(-c3cc4c(N5CCN(C(=O)[C@H]6CC[C@H](O)CC6)CC5)ccnn4c3)cc2)CC1 [Compound 422]	< 100	< 10
CCN1CCC(c2ccc(-c3cc4c(N5CCN(C(=O)N6CCC(O)CC6)CC5)ccnn4c3)cc2)CC1 [Compound 423]	100 to 500	< 10
CC(C)N1CC2(CN(c3ccc(-c4cc5c(N6CCN(C(=O)[C@H]7C[C@H](C#N)C7)CC6)ccnn5c4)cc3)C2)C1 [Compound 426]	< 100	< 10
CCN1CCN(c2ccc(-c3cc4c(N5CCN(C(=O)C6CC6)CC5)ccnn4c3)c(OC(F)F)c2)CC1 [Compound 427]	100 to 500	< 10
CCN1CCC(c2ccc(-c3cc4c(N5CCN(C(=O)N6CCC(C#N)CC6)CC5)ccnn4c3)cc2)CC1 [Compound 428]	100 to 500	< 10
CCN1CCN(c2ccc(-c3cc4c(N5CCN(C(=O)[C@H]6CC[C@H](C#N)CC6)CC5)ccnn4c3)cc2)CC1 [Compound 429]	< 100	< 10
